For 79 compounds, melting point results are on record in a melting point compilation (Tetko et al.).

For the compound `CC(C)c1ccccc1`, the melting point (commonly the temperature, or range, at which the solid turns liquid) was -96 °C.
The same measure for `Clc1ccc(C(Cl)(Cl)Cl)cc1`: 5.8 °C.
The result for `OCC1OC=CC(O)C1O` (centres undefined) reads 99 to 103 °C.
The result for `CC(=O)OC1CCC2(C)C(CCC3C2CCC2(C)C3CCC23OCCO3)C1` (centres undefined) reads 153 °C; that for `O=C(CBr)c1ccc(-c2ccccc2)s1`, 115 to 117 °C.
Compound `CCCCc1c(C)nc(NC(=O)NS(=O)(=O)c2cccs2)nc1O` showed a melting point of 200 to 201 °C.
The result for `O=C1C(c2ccccc2)=Nc2cc([N+](=O)[O-])ccc21` reads 185 °C; that for `CS(=O)(=O)CCCN=C=S`, 47.5 °C.
The same measure for `C[Si](C)(C)N(c1ccccc1)[Si](C)(C)C`: 16.5 °C; for `Cc1cc(C2(c3cc(C)c(O)c(CN(CC(=O)O)CC(=O)O)c3)OC(=O)c3ccccc32)cc(CN(CC(=O)O)CC(=O)O)c1O`: 181 °C; for `O=[N+]([O-])c1ccsc1`: 78.5 °C.
The same measure for `Cc1nc(-c2ccccc2)sc1C=O`: 111 to 113 °C; for `O=S(=O)(CCl)c1ccccc1`: 54 °C; for `Cn1c(C(C#N)c2ncccc2[N+](=O)[O-])nc2ccccc21` (centres undefined): 214 °C.
Compound `O=C(Cl)c1cccc2c1OCCCO2` showed a melting point of 36 to 38 °C.
The same measure for `O=C1OC(c2ccccc2)=N/C1=C\c1ccc(Br)o1`: 122 °C; for `Fc1nccc(Br)c1Br`: 76 °C.
The same measure for `CCCCCCCCOc1ccc(N)cc1`: 35 to 39 °C; for `CC(Cc1ccc(O)c(O)c1)(NN)C(=O)O` (centres undefined): 208 °C.
With `O=C(O)[C@@H]1Cc2c([nH]c3ccccc23)CN1`, the melting point fell in the range of 295 to 296 °C.
The same measure for `O=C(O)CC1C=CCC1` (centres undefined): 19 °C; for `CCOC(=O)C(=O)C=CN(C)C`: 38 °C; for `CCOC(=O)CN(CCCN(CC(=O)OCC)S(=O)(=O)c1ccc(C)cc1)S(=O)(=O)c1ccc(C)cc1`: 130 °C.
The compound `OCCCCCCCCCCl` returned a melting point of 28 °C.
The same measure for `CC(=O)CCCCC(=O)O`: 35 °C.
The same measure for `CSc1nc(=O)n(Cc2ccccc2)c2c1CCC2`: 94 to 96 °C.
In the case of `Clc1ccccc1-c1ccccc1`, the melting point was found to be 34 °C.
The same measure for `CN1C(=O)Cc2cc(S(=O)(=O)Cl)ccc21`: 154 to 158 °C; for `NCc1ccccc1`: 10 °C; for `Cn1c(N)cc(=O)[nH]c1=O`: 300 °C.
The same measure for `CCOC(=O)C(=NNc1ccccc1[N+](=O)[O-])C(C)=O`: 73 to 74 °C.
As for `COc1ccc(SCC(=O)O)cc1OC`, the melting point turned out to be 102 °C.
The same measure for `COc1ccc(C(C)=O)c(F)c1`: 52 °C; for `O=C(O)c1cc([N+](=O)[O-])ccc1N1CCOCC1`: 166 to 172 °C; for `CCOC(=O)C(Br)C(Br)c1ccccc1` (centres undefined): 77 to 79 °C.
Consider `Clc1cc(Br)ccn1`, for which the melting point turned out to be 19 °C.
The same measure for `Oc1ccc(F)c(Cl)c1`: 41 °C; for `CC(=O)C1(O)CCC2(C)C(CCC3C2CCC2(C)C3CCC23OCCO3)C1` (centres undefined): 182 to 190 °C; for `O=C(O)/C(=C/c1ccc([N+](=O)[O-])cc1)c1ccccc1C(=O)O`: 223 °C.
The result for `Cc1cc(-c2onc(C)c2C(=O)O)no1` reads 167 °C; that for `CC(C)(C)c1cc(Br)cc(C(C)(C)C)c1O`, 83 °C.
The same measure for `O=c1[nH]c2ccccc2n1CCCN1CCN(C(c2ccccc2)c2ccccc2)CC1`: 154 °C; for `CC12CCC(C(COC=O)C1=O)C2(C)C` (centres undefined): 74 °C; for `CC1=NNC(=O)CC1`: 79 to 83 °C.
In the case of `CC(C)C1(Cc2ccco2)C(=O)NC(=O)NC1=O`, the melting point is 169 °C.
The result for `CC(=O)OC1C2=C(C(=O)C(O)=C(C(C)C)C2=O)C2(C)CCCC(C)(C)C2C1O` (centres undefined) reads 216 °C; that for `COC(=O)NS(=O)(=O)c1ccc(N)cc1`, 230 °C.
The same measure for `Nc1ncnc2c1ncn2Cc1c(F)cccc1Cl`: 245 °C.
The result for `CCOC(=O)c1cn[nH]c1NC(=O)Nc1ccc(Cl)c(Cl)c1` reads 269 to 270 °C.
Consider `NNC(=O)CN1c2ccccc2Sc2ccccc21`, for which the melting point was in the range of 216 to 218 °C.
The result for `Cc1oc(-c2ccccc2)nc1CCO` reads 72 to 75 °C.
Take `O=C1c2ccccc2C(=O)C1c1ccc(Cl)cc1`: the melting point amounted to 146 °C.
The same measure for `O=C1C2CC=CCC2C(=O)N1SC(Cl)(Cl)Cl` (centres undefined): 178 °C.
The result for `CC(C)(C)OC(=O)N1CCC(c2nc(CO)cs2)CC1` reads 97 to 101 °C; that for `CCOC(=O)c1cc(C)n(Cn2nc(C(=O)OCC)cc2C)n1`, 130 °C; that for `CC(=O)/C=C1\Cc2ccccc21`, 79 to 79.6 °C.
The result for `CCCC(=O)C=Cc1ccc(O)c(O)c1` reads 132 °C; that for `BrCCCOc1ccc2cc3ccc(OCCCBr)cc3nc2c1`, 142 °C.
As for `O=[N+]([O-])c1cc(F)ccc1Cl`, the melting point stood at 38 °C.
The same measure for `CC(=O)C(c1ccccc1)c1ccc(C(F)(F)F)cc1[N+](=O)[O-]` (centres undefined): 91 °C.
The result for `CC(C)(C)N(NC(=O)c1ccccc1)C(=O)c1ccccc1I` reads 188 °C.
For the compound `O=C1Nc2c(Cl)ccc(Cl)c2C1=O`, the melting point is 251 to 254 °C.
The same measure for `O=C(O)c1cnc(Cl)c(Cl)c1`: 163 to 168 °C; for `O=C(NC1(C(=O)O)Cc2ccccc2C1)OCC1c2ccccc2-c2ccccc21`: 198 to 202 °C; for `CC(=O)c1c(C)n(O)c2ccc3nonc3c12`: 301 to 303 °C.
The result for `O=C(O)CCCCCC1NC(=O)CS1` (centres undefined) reads 140 °C; that for `Cc1csc(N)c1-c1nc2ccccc2s1`, 111 to 112 °C; that for `O=C1c2ccccc2C(=O)c2c1cc(O)c(O)c2O`, 313 °C.
The result for `COc1cc(NC(=S)NN)cc(OC)c1OC` reads 178 to 179 °C.
In turn, `COc1cc(N)c2ncccc2c1` gave a melting point of 52 °C.
The result for `NC(=O)CBr` reads 89 °C; that for `O=C1c2ccccc2C(=O)N1CCOCCO`, 64 °C; that for `O=C(c1ccccc1)c1noc(-c2ccccc2)c1S(=O)(=O)c1ccccc1`, 188 °C.
The compound `O=[N+]([O-])c1cc2nccnc2cc1Cl` had a melting point of 210 to 213 °C.
The result for `CCOC(=O)NNC(=O)OCC` reads 135 °C; that for `O=C(O)c1ccc(O)cc1Cl`, 207 to 209 °C.
The same measure for `COc1ccccc1-c1ccc(C=C2C(=O)NC(=S)NC2=O)o1`: 235 °C; for `CC(=O)N1CCSC1C(=O)O` (centres undefined): 114 to 116 °C; for `Cc1cc(Sc2nnc(N)s2)c2ccccc2n1`: 197 to 200 °C.
